The target of this experiment is T1, human glucagon receptor (Homo sapiens, UniProt P47871).
T1 construct: expressed in transfected cells; host or cells: BHK (baby hamster kidney) cells
Put plainly: Glucagon Binding Assay (III). The note with it: BHK cell membranes, WGA SPA beads, 125I-glucagon; read-out: Glu Bd Assay (III) IC50. In outline: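 Non-specific binding was set with 500 nM glucagon in this SPA-type binding assay using WGA beads. The receptor source was a membrane preparation, kept on ice or at 4 °C, from BHK cells transfected with the human receptor. Scintillation counts were taken after 4 hours of shaking and 8–48 hours of settling.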

The values below come from patent US6875760B2 (Novo Nordisk A/S, priority 1999, dated 2005).

SMILES strings stand for the structures.

T1 sequence (P47871 26-477): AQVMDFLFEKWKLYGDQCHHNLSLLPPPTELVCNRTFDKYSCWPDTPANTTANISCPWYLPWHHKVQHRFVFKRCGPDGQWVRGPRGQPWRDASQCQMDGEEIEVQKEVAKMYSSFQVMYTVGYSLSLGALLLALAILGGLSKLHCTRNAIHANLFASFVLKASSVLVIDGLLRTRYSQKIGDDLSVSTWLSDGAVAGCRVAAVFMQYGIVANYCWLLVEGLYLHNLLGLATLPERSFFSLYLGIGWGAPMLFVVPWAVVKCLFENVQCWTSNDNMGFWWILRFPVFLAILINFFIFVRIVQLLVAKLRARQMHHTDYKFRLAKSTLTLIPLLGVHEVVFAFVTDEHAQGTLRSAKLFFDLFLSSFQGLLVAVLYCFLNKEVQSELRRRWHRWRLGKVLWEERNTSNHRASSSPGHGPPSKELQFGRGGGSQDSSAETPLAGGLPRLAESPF

In general, IC50 refers to the concentration needed to halve the response being measured. On to `CC(C)(C)C1CCC(N(Cc2ccc(C(=O)Nc3nn[nH]n3)cc2)C(=O)Cc2cccc(OC(F)(F)F)c2)CC1` (stereo not shown) [Example 543, 4-({(4-tert-Butylcyclohexyl)-[2-(3-trifluoromethoxyphenyl)acetyl]amino}methyl)-N-(2H-tetrazol-5-yl)benzamide], for which the IC50 was found to be 201 nM. The result for `CC(C)(C)C1CCC(N(Cc2ccc(C(=O)Nc3nn[nH]n3)cc2)C(=O)/C=C/c2cccc3ccccc23)CC1` (stereo not shown) [Example 544] reads 552 nM. The result for `CC(C)(C)C1CCC(N(Cc2ccc(C(=O)Nc3nn[nH]n3)cc2)C(=O)CCCc2ccccc2)CC1` (stereo not shown) [Example 545, 4-([(4-tert-Butylcyclohexyl)-(4-phenylbutyryl)amino]methyl}-N-(2H-tetrazol-5-yl)benzamide] reads 47 nM; that for `CC(C)(C)C1CCC(N(Cc2ccc(C(=O)Nc3nn[nH]n3)cc2)C(=O)C2=CCc3ccccc32)CC1` (stereo not shown) [Example 546, 4-([(4-tert-Butylcyclohexyl)-(3H-indene-1-carbonyl)amino]methyl}-N-(2H-tetrazol-5-yl)benzamide], 1740 nM; that for `CC(C)(C)C1CCC(N(Cc2ccc(C(=O)Nc3nn[nH]n3)cc2)C(=O)Cc2ccc(-c3ccccc3)cc2)CC1` (stereo not shown) [Example 547, 4-{[(2-Biphenyl-4-ylacetyl)-(4-tert-butylcyclohexyl)amino]methyl}-N-(2H-tetrazol-5-yl)benzamide], 88 nM. The result for `CC(Oc1cccc(Cl)c1)C(=O)N(Cc1ccc(C(=O)Nc2nn[nH]n2)cc1)C1CCC(C(C)(C)C)CC1` (stereo not shown) [Example 548, 4-({(4-tert-Butylcyclohexyl)-[2-(3-chlorophenoxy)propionyl]amino}methyl)-N-(2H-tetrazol-5-yl)benzamide] reads 309 nM; that for `CC(C)(C)C1CCC(N(Cc2ccc(C(=O)Nc3nn[nH]n3)cc2)C(=O)/C=C/c2ccc(Cl)cc2)CC1` (stereo not shown) [Example 549, 4-({(4-tert-Butylcyclohexyl)-[3-(4-chlorophenyl)acroloyl]amino}methyl)-N-(2H-tetrazol-5-yl)benzamide], 55 nM; that for `CC(C(=O)N(Cc1ccc(C(=O)Nc2nn[nH]n2)cc1)C1CCC(C(C)(C)C)CC1)c1ccccc1` (stereo not shown) [Example 550, 4-{[(4-tert-Butylcyclohexyl)-(2-Phenylpropionyl)amino]methyl}-N-(2H-tetrazol-5-yl)benzamide], 381 nM. Consider `CC(C)(C)C1CCC(N(Cc2ccc(C(=O)Nc3nn[nH]n3)cc2)C(=O)/C=C/c2cccc(Cl)c2)CC1` (stereo not shown) [Example 551, 4-({(4-tert-Butylcyclohexyl)-[3-(3-chlorophenyl)acroloyl]amino}methyl)-N-(2H-tetrazol-5-yl)benzamide], for which the IC50 came to 136 nM. Then `CC(C)(C)C1CCC(N(Cc2ccc(C(=O)Nc3nn[nH]n3)cc2)C(=O)/C=C/c2c(Cl)cccc2Cl)CC1` (stereo not shown) [Example 552, 4-({(4-tert-Butylcyclohexyl)-[3-(2,6-dichlorophenyl)acryloyl]amino}methyl)-N-(2H-tetrazol-5-yl)benzamide], with 133 nM; and `CC(Oc1ccc(OC(F)(F)F)cc1)C(=O)N(Cc1ccc(C(=O)Nc2nn[nH]n2)cc1)c1ccc(N2CCCCC2)cc1` (stereo not shown) [Example 554, 4-({(4-Piperidin-1-ylphenyl)-[2-(4-trifluoromethoxyphenoxy)propionyl]amino}methyl)-N-(2H-tetrazol-5-yl)benzamide], with 788 nM; and `O=C(Nc1nn[nH]n1)c1ccc(CN(C(=O)/C=C/c2ccccc2Cl)c2ccc(N3CCCCC3)cc2)cc1` [Example 555, 4-{[[3-(2-Chlorophenyl)acryloyl]-(4-piperidin-1-ylphenyl)amino]methyl}-N-(2H-tetrazol-5-yl)benzamide], with 604 nM. The result for `O=C(O)CCNC(=O)c1ccc(CN(CC(c2ccccc2)c2ccccc2)C(=O)Cc2cccc(OC(F)(F)F)c2)cc1` [Example 556] reads 660 nM.
